Experiments:
[1] = biological target: T1, human AT1 receptor (Homo sapiens, UniProt P30556); assay: AT1 radioligand binding assay (displacement of [Eu]AngII); conditions: membranes of CHO-K1 cells expressing cloned human AT1 receptor; values given as lower bounds; read-out: AT1 pKi (converted)
T1 construct: expressed in transfected cells; host or cells: CHO-K1
T1 sequence (P30556 1-359): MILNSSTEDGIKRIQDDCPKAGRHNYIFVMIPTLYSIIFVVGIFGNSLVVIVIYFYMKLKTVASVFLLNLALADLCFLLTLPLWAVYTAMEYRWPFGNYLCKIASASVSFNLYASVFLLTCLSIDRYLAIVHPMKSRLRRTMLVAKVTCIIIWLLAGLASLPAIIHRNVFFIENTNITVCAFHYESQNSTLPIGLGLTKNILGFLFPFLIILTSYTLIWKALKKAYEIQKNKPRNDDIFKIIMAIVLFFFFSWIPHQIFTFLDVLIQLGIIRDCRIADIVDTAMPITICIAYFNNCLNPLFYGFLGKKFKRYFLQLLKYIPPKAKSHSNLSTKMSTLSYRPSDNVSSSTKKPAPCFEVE
How it was run: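 Membranes from CHO-K1 cells stably expressing cloned human AT1, 0.2 μg protein, in 50 mM Tris/HCl pH 7.5, 5 mM MgCl2, 0.025% BSA. Compounds displaced [Eu]AngII over 120 min in the dark at room temperature or 37° C; filter-bound TRF read. Nonspecific binding with 10 μM angiotensin II; IC50 converted to Ki via Cheng-Prusoff, reported as pKi.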

[2] = biological target: T2, NEP enzyme (Homo sapiens, UniProt P08473); assay: NEP enzyme inhibition assay (fluorogenic peptide substrate); type: biochemical; conditions: values given as lower bounds; * = prodrugs, may not exhibit NEP activity in an in vitro assay; read-out: NEP pIC50 (converted)
T2 construct: purchased R&D Systems, Minneapolis, Minn; 1182-ZN
T2 sequence (P08473 52-750 limits assumed): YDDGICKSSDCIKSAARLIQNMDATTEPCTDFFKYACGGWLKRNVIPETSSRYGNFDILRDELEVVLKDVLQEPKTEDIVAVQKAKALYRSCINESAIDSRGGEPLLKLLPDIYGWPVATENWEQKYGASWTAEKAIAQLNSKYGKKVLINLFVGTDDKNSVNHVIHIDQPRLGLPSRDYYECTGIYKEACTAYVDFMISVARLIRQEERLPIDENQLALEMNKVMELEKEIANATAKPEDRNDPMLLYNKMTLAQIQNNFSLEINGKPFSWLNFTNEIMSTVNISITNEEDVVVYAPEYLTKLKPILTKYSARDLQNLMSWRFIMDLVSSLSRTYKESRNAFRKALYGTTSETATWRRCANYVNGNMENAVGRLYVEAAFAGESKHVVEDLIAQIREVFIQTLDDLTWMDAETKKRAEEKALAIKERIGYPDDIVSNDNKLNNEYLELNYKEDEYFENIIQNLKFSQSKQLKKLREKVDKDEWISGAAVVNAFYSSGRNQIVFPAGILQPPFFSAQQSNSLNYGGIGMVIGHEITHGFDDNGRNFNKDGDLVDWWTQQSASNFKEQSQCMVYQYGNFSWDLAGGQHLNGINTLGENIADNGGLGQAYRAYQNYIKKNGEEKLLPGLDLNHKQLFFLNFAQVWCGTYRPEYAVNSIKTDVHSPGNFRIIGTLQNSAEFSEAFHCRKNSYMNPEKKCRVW
How it was run: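 Recombinant human NEP was run with Mca-BK2 (10 μM) at room temperature in Tris buffer with 1 μM Zn. Compounds (10 μM–20 pM, 12 points) were pre-equilibrated 10 min, then reacted 20 min and acid-stopped. Fluorescence ex 320/em 405 nm, one-site competition fit gives pIC50. Thiol compounds may be pre-treated with 400 μM TCEP.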

Compound | Ki [1] [nM] | IC50 [2] [nM]
CCCc1cc(C(=O)NC(CC(=O)NO)CC(C)C)nn1Cc1ccc(-c2ccccc2S(=O)(=O)NC(C)=O)c(F)c1 (centres unmarked) [Example 6-21, 1-(2′-Acetylsulfamoyl-2-fluorobiphenyl-4-ylmethyl)-5-propyl-1H-pyrazole-3-carboxylic acid (1-hydroxycarbamoylmethyl-3-methylbutyl)amide] | ≤ 10 | ≤ 100
CCCc1cc(C(=O)N[C@@H](CC(=O)O)Cc2ccccc2Cl)nn1Cc1ccc(-c2ccccc2S(=O)(=O)NC(C)=O)nc1 [Example 14-14, (R)-3-({1-[6-(2-Acetylsulfamoylphenyl)-pyridin-3-ylmethyl]-5-propyl-1H-pyrazole-3-carbonyl}-amino)-4-(2-chlorophenyl)butyric acid] | ≤ 10 | ≤ 1000
CCCc1cc(C(=O)N[C@H](Cc2ccccc2)[C@@H](O)C(=O)O)nn1Cc1cnc(-c2ccccc2S(=O)(=O)NC(C)=O)cn1 [Example 17-5, (2R,3R)-3-({1-[5-(2-Acetylsulfamoylphenyl)pyrazin-2-ylmethyl]-5-propyl-1H-pyrazole-3-carbonyl}amino)-2-hydroxy-4-phenylbutyric acid] | ≤ 100 | ≤ 100
CCCc1cc(C(=O)N[C@@H](CC(=O)O)Cc2ccccc2)nn1Cc1ccc(-c2ccccc2S(=O)(=O)NC(C)=O)nc1 [Example 14-15, (R)-3-({1-[6-(2-Acetylsulfamoylphenyl)-pyridin-3-ylmethyl]-5-propyl-1H-pyrazole-3-carbonyl}-amino)-4-phenylbutyric acid] | ≤ 10 | ≤ 1000
CCCc1cc(C(=O)N[C@H](Cc2ccccc2)CN(O)C=O)nn1Cc1ccc(-c2ccccc2S(=O)(=O)NC(C)=O)cc1 [Example 6-13, 1-(2′-Acetylsulfamoyl-biphenyl-4-ylmethyl)-5-propyl-1H-pyrazole-3-carboxylic acid [(R)-1-benzyl-2-(formyl-hydroxy-amino)-ethyl]amide] | ≤ 10 | ≤ 100
CCCc1cc(C(=O)N[C@H](Cc2ccccc2)[C@@H](O)C(=O)O)nn1Cc1ccc(-c2ccccc2S(=O)(=O)NC(=O)N2CCCC2)cc1 [Example 7-21, (2R,3R)-2-Hydroxy-4-phenyl-3-[(5-propyl-1-{2′-[(pyrrolidine-1-carbonyl)sulfamoyl]biphenyl-4-ylmethyl}-1H-pyrazole-3-carbonyl)amino]butyric acid] | ≤ 100 | ≤ 100

Other lines, results leading:

Ki [1] [nM] | IC50 [2] [nM] | Compound
≤ 10 | ≤ 1000 | CCCc1cc(C(=O)N[C@H](Cc2ccccc2)[C@@H](O)C(=O)O)nn1Cc1ccc(-c2ccccc2-c2nc(=O)o[nH]2)cc1 [Example 16-2, (2R,3R)-2-Hydroxy-3-({1-[2′-(5-oxo-2,5-dihydro-[1,2,4]oxadiazol-3-yl)biphenyl-4-ylmethyl]-5-propyl-1H-pyrazole-3-carbonyl}amino)-4-phenylbutyric acid]
≤ 10 | ≤ 1000 | CCCc1cc(C(=O)N[C@H](Cc2ccccc2)[C@@H](O)C(=O)O)nn1Cc1ccc(-c2ccccc2S(=O)(=O)NC(=O)NCC)cc1 [Example 7-1, (2R,3R)-3-(1-((2′(N-(ethylcarbamoyl)sulfamoyl)biphenyl-4-yl)methyl)-5-propyl-1H-pyrazole-3-carboxamido)-2-hydroxy-4-phenylbutanoic acid]
≤ 100 | ≤ 1000 | CCCc1cc(C(=O)N[C@@H](CC(=O)O)Cc2ccccc2C(F)(F)F)nn1Cc1ccc(-c2ccccc2-c2nnn[nH]2)cc1 [Example 3-36, (R)-3-({5-Propyl-1-[2′-(1H-tetrazol-5-yl)-biphenyl-4-ylmethyl]-1H-pyrazole-3-carbonyl}amino)-4-(2-trifluoromethylphenyl)butyric acid]
≤ 10 | ≤ 1000 | CCCc1cc(C(=O)N[C@H](Cc2ccccc2)[C@@H](O)C(=O)O)nn1Cc1ccc(-c2ccccc2-c2nnn[nH]2)cc1 [Example 1, (2R,3R)-3-(1-((2′-(1H-tetrazol-5-yl)biphenyl-4-yl)methyl)-5-propyl-1H-pyrazole-3-carboxamido)-2-hydroxy-4-phenylbutanoic Acid]

Reference: patent publication US8350027B2, “Dual-acting pyrazole antihypertensive agents” (Theravance, Inc., priority 2009, dated 2013)
